# Assay results taken from patent US20230364032A1, “USE OF 2-HOBA TO TREAT ATHEROSCLEROSIS” (Vanderbilt University, priority 2020, published 2023).
# “Also recorded” adds a separate entry of the source.
# Tests used:
# primary macrophages = assay: H2O2-induced apoptosis of macrophages (Annexin V); format: cell-based, mouse; conditions: 250 μM H2O2, 24 h, 500 μM compound; compared to vehicle or 4-HOBA
# Procedure: (6A and 6B) Mouse aortic endothelial cells (6A) or primary macrophages (6B) were incubated for 24 h with 250 μM H2O2 alone or with either 4-HOBA or 2-HOBA (500 μM). Apoptotic cells were then detected by Annexin V staining and flow cytometry. (6C to 6H) The mRNA levels of IL-1β, IL-6, and TNF-α were analyzed by real time PCR in the peritoneal macrophages incubated for 24 h with either oxidized LDL (6C-6E) or 250 μM H2O2 (6F-6H) alone or with either 4-HOBA or 2-HOBA (500 μM). (6A to 6H) Data are presented as mean±SEM from three independent experiments, ***p<0.001, One-way ANOVA with Bonferroni's post hoc test.
# Peritoneal macrophages were isolated from mice 72 hours post injection of 3% thioglycollate and maintained in DMEM plus 10% fetal bovine serum (FBS, Gibco) as previously described^30. Human aortic endothelial cells (HAECs) were obtained from Lonza and maintained in endothelial cell basal medium-2 plus 1% FBS and essential growth factors (Lonza).
# Cell apoptosis was induced as indicated and detected by fluorescent labeled Annexin V staining and quantitated by either Flow Cytometry (BD 5 LSRII) or counting Annexin V positive cells in images captured under a fluorescent microscope. The apoptotic cells in atherosclerotic lesions were measured by TUNEL staining of cross-sections of atherosclerotic proximal aortas as previously described^30. […]
# MDA-HDL = assay: MDA adducts in isolated HDL by ELISA; format: in vivo, mouse; conditions: Ldlr−/− mice
# Procedure: FIGS. 7A-7G show the effects of 2-HOBA on MDA-HDL adducts and HDL function. (7A) The levels or MDA adducts were measured by ELISA in HDL isolated from Ldlr mice treated as described in FIG. 1. Data are presented as mean±SEM (N=8 pet group), *** p<0.001, One-way ANOVA with Bonferroni's post hoc test. (7B) Western blots of apoAl and MDA-apoAl in HDL isolated from plasma by immunoprecipitation using primary anti-apoAl antibody. Ldlf mice were treated as described In FIG. 1 and apoAl and MDA-apoAl from Ldlr mice consuming a chow diet are included f0t comparison. (7C) Quantitation using lmageJ software of the mean density ratio (arbitrary units) of MDA-apoAl to apoAl detected by Western blotting (7B). (7D The HDL was isolated from the plasma of Ld/r-mice consuming a western diet for 16 weeks and treated with 2-HOBA or 4-HOBA or vehicle. Cholesterol enriched macrophages were incubated for 24 h with HDL (25 μg protein/ml). and the % reduction in cellular cholesterol content measured. Data presented as mean±SEM. N=7 per group, *p<0.05.**p<0.01, One-way ANOVA with Bonferroni's post hoc test (7E) The MDA adducts were measured by ELISA in HDL isolated from control or FH subjects before and after LDL apheresis. N=7 or 8, ***p<0.001, One-way ANOVA with Bonferroni's post hoc test. (7F) The MDA-Lysyl crosslink content in HDL from control or FH subjects (n=6 per group), p=0.02, Mann-Whitney test (7G) The capacity of HDL from control or FH subjects pre and post LDL apheresis (n=7 per group) to reduce the cholesterol content of apoE macrophages.
# The study was approved by the Vanderbilt University Institutional Review Board (IRB), and all participants gave their written informed consent. The human blood samples from patients with severe FH, who were undergoing LDL apheresis, and healthy controls were obtained using an IRB approved protocol. […] After stopping the reaction, the O.D. was measured at 450 nm wavelength. MDA-ApoAI was detected in mouse plasma by immunoprecipitation of ApoAI and western blotting. […] Proteins were visualized and quantitated by Odyssey 3.0 Quantification software (LI-COR).
# [1] = target: anti-MDA antibody / MDA-BSA (Bos taurus, UniProt P02769); assay: Anti-MDA antibody interaction with MDA-BSA (dot blot); conditions: MDA-BSA incubated with 1× or 5× 2-HOBA
# Procedure: A series of doses of MDA-BSA or MDA alone were incubated with 1× or 5×2-HOBA. Then 2 μl of each sample was loaded onto HyBond-C membrane, and incubated with the blocking buffer, primary anti-MDA antibody and fluorescent secondary antibody after vigorous washing. The image was captured by the Odyssey system (FIG. 10A) and quantitated by ImageJ software (FIG. 10B).
# anti-MDA antibody / MDA-BSA, sequence (P02769 25-607): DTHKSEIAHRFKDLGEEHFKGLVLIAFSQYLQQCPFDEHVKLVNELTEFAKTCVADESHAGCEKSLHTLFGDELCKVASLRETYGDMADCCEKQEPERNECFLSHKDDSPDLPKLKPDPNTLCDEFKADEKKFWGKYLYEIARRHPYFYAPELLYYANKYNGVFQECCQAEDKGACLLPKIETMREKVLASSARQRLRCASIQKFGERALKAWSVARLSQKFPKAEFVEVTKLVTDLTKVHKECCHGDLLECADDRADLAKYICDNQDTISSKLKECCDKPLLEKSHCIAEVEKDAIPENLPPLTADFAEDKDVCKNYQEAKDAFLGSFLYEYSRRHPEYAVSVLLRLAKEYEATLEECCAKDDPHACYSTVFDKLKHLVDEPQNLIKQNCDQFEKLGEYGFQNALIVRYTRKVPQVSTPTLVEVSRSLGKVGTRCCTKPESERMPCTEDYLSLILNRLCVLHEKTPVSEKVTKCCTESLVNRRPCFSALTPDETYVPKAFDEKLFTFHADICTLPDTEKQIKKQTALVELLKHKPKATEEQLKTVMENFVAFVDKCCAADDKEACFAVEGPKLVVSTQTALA
compound,measurement,setting,value
"NCc1ccccc1O [2-HOBA, 2-hydroxybenzylamine]","number of apoptotic cells, macrophage cultures",primary macrophages,markedly decreased
same,MDA content in HDL,MDA-HDL,reduced
same,reduction of MDA adduct content of isolated HDL (ELISA),MDA-HDL; compared to 4-HOBA,56%
same,reduction of MDA adduct content of isolated HDL (ELISA),MDA-HDL; compared to vehicle,57%
same,interference with antibody recognition of MDA-albumin adducts,[1],does not interfere; also recorded: does not impact
